Results from paper PMC9549030, “Structural basis for specific inhibition of the deubiquitinase UCHL1” (Nature Communications, 2022).
Where “and” joins values, the source holds several entries; their conditions need not be identical. Equal entries are not always repeated. Where two headings read alike, the source gives them in different places.

Assays:
[1] = test system: DUBs in HEK293 lysate; test: Activity-based protein profiling in the lysate with Ub-VS competition; type: binding, human; settings: 1 µM, 1 h
Procedure: Cells (4 × 10^6) were seeded in 10 cm dishes and grown to 90% confluency. The medium was aspirated, cells were washed with ice-cold PBS, treated with 600 µL ABP lysis buffer (1% (v/v) IGEPAL, 50 mM Tris, 150 mM NaCl, 5% glycerol, pH 8, cOmplete protease inhibitor cocktail), and incubated on ice for 15 min. The lysed cells were scrapped off the dish, cleared by centrifugation, and the protein concentration was determined via a Bradford assay. […] Each compound was diluted to a 2x concentration in PBS buffer from a 10 mM stock in DMSO (final concentration: 1 µM). Then each compound dilution or a DMSO dilution was mixed with cell lysate and incubated for one hour at room temperature. […] Samples were resolved by SDS-PAGE using a 4–12% Bis-Tris gel (Invitrogen, NuPAGE) with MES SDS running buffer for 50 min at 180 V. Fluorescence was read out using the Alexa564 (λex/em 520–545/577–613 nm, for TAMRA) and Alexa680 (λex/em 650–675/700–730 nm, for the PageRuler Prestained NIR Protein Ladder (Thermo Scientific)) channels on a ChemiDoc MP Imaging System (Bio-Rad).

[2] = target: T1, UCHL1 (Homo sapiens, UniProt P09936); test: Thermal shift assay; type: binding; settings: UCHL1 1 µM, 1 h, replicates
T1 sequence (P09936 1-223): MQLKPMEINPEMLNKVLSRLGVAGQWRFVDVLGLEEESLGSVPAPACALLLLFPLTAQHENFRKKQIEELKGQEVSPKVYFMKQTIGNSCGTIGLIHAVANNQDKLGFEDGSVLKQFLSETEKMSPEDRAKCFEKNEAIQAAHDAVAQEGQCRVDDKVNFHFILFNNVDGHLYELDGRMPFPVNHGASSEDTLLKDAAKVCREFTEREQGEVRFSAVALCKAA
Procedure: Reactions were performed in white 96-well PCR plates (Bio-Rad). UCHL1 was diluted in thermal shift buffer (1x PBS, 5 mM DTT) to a 4x concentration of 4 µM. The protein was then mixed with 4x compound dissolved in thermal shift buffer in a 1:1 ratio. To each well was added 20 µL of DUB-Inhibitor solution, followed by 1 h incubation time. To each well was then added 20 µL 4x SYPRO Orange in thermal shift buffer. After sealing the plates with a transparent film, thermal denaturation (gradient: 20–90 °C; Increment: 0.3 °C, hold for 5 s before read) was performed and monitored by a Bio-Rad Connect cycler.

[3] = target: T1, UCHL1; test: Ub-Rhodamine (Ubiquitin rhodamine cleavage) assay; type: biochemical; settings: 1 h preincubation; for remaining activity at 0.00050402 µM: compound 0.50402 nM; for remaining activity at 0.00151206 µM: compound 1.51206 nM; for remaining activity at 0.00453618 µM: compound 4.53618 nM; for remaining activity at 0.0136085 µM: compound 13.6085 nM; for remaining activity at 0.0408257 µM: compound 40.8257 nM; for remaining activity at 0.122477 µM: compound 122.477 nM; for remaining activity at 0.367431 µM: compound 367.431 nM; for remaining activity at 1.10229 µM: compound 1102.29 nM; for remaining activity at 3.30688 µM: compound 3306.88 nM; for remaining activity at 30.581 µM: compound 30581 nM; for remaining activity at 100 µM: compound 100000 nM; for remaining activity at 0.000610352 µM: compound 0.610352 nM; for remaining activity at 0.0012207 µM: compound 1.2207 nM; for remaining activity at 0.00244141 µM: compound 2.44141 nM; for remaining activity at 0.00488281 µM: compound 4.88281 nM; for remaining activity at 0.00976562 µM: compound 9.76562 nM; for remaining activity at 0.0195312 µM: compound 19.5312 nM; for remaining activity at 0.0390625 µM: compound 39.0625 nM; for remaining activity at 0.078125 µM: compound 78.125 nM; for remaining activity at 0.15625 µM: compound 156.25 nM; for remaining activity at 0.3125 µM: compound 312.5 nM; for remaining activity at 0.625 µM: compound 625 nM; for remaining activity at 1.25 µM: compound 1250 nM; for remaining activity at 2.5 µM: compound 2500 nM; for remaining activity at 5 µM: compound 5000 nM; for remaining activity at 10 µM: compound 10000 nM
[4] = test system: T2, UCHL1 in HEK293 cells; test: Cellular Ub-probe (HA-Ub-VS) competition, inhibition of cellular UCHL1; type: cell-based, human
T2 construct: Western blot analysis of endogenous UCHL1 labeled with HA-Ub-VS after treatment of HEK293 cells; endogenous in cells; host or cells: HEK293
Procedure: Proteins were transferred to a polyvinylidene fluoride (PVDF, only experiments in Fig. 4e and Supplementary Fig. 7e, f) or nitrocellulose (all other experiments) membrane using a Trans-Blot Turbo system (Bio-Rad, 1.3 A, 25 V, 10 min). The membranes were blocked with 5% (m/v) nonfat milk in PBS-T buffer and incubated with indicated primary antibodies (anti-UCHL1, 1:1000, Cell Signaling, D3T2E; anti-PARK7, 1:1000, Cell Signaling, D29E5; anti-Tubulin, 1:4000, Sigma, T6199; anti-Hemagglutinin, 1:1000, BioLegend, 16B12; anti-flag, 1:2000, Sigma, F3165; anti-Ubiquitin, 1:1000, Cell Signaling, P4D1; anti-Ubiquitin, 1:300, Santa Cruz, P4D1, sc-8017; anti-UCHL3, 1:1000, Proteintech, 12384-1-AP) overnight. Then the membranes were incubated with the respective secondary antibody (anti-mouse,1:5000, Sigma, NXA931; anti-rabbit, 1:5000, Sigma, GENA934) coupled to horseradish peroxidase. The chemiluminescent reaction was initiated using a Clarity Western ECL substrate (Bio-Rad) and images were taken on a ChemiDoc MP Imaging System (Bio-Rad).
The total protein concentration was adjusted to 2 mg/ml by diluting each sample with ABP lysis buffer. A final concentration of 1 µM HA-Ub-VS probe was added, followed by incubation for 30 min at 37 °C. The labeling reaction was quenched by the addition of 4x LDS sample buffer. The samples were separated via SDS-PAGE and further analyzed via western blotting as described above.

[5] = target: T1, UCHL1; test: Identification of probe-labeled proteins with mass spectrometry (pulldown enrichment); settings: HEK293 cells; 1 µM; 24 h
Procedure: Cells were cultured, treated with a compound, and lysed as described above. The cell lysate was diluted to a protein concentration of 2 mg/mL with ABP lysis buffer. 1 µL of each click reagent (see above) were added to each sample, followed by an incubation period of one hour at room temperature with protection from light. The sample volume was adjusted to 1000 µL with PBS and 30 µL of a NeutrAvidin (Thermo Fisher) bead slurry (prewashed 3x with PBS) were added to each sample. The samples were incubated for one hour to overnight on a rotator at 15 rpm at 4 °C. Beads were pelleted by centrifugation, the supernatant was discarded, and the beads were washed six times (1x with ½x lysis buffer, followed by five washes with PBS). After removing the washing solution completely, the beads were subjected to reduction with dithiothreitol (1 mM), alkylation with chloroacetamide (5 mM) and on-bead digestion with first LysC (Serva Biotech, 1 h, 37 °C), followed by trypsin (Sigma Aldrich, 1 h, overnight). Tryptic peptides were desalted with C18 StageTips and analyzed by nano-HPLC-MS/MS.
An Ultimate 3000 RSLC nano-HPLC system and a Hybrid-Orbitrap mass spectrometer (Q Exactive Plus) equipped with a nano-spray source (Thermo Fisher Scientific) was used. The protein fragments were enriched on a C18 PepMap 100 column (5 μm, 100 Å, 300 μm ID * 5 mm, Dionex) using 0.1% TFA, at a flow rate of 30 μL/min, for 5 min and separated on a C18 PepMap 100 column (3 μm, 100 Å, 75 μm ID × 50 cm) using a linear gradient (5–30% ACN/H2O + 0.1% formic acid over 90 min) with a flow rate of 300 nL/min. […] Signals in the mass range of m/z 300 to 1650 were acquired at a resolution of 70,000 for the full scan, followed by ten high-energy collision-dissociation (HCD) MS/MS scans of the most intense at least doubly charged ions at a resolution of 17,500. Proteins were relatively quantified by using MaxQuant[60] v.2.0.3.1, including the Andromeda search algorithm and searching the Homo sapiens reference proteome of the UniProt database. Briefly, an MS/MS ion search was performed for enzymatic trypsin cleavage, allowing two missed cleavages. Carbamidomethylation was set as a fixed protein modification, and oxidation of methionine and acetylation of the N-terminus were set as variable modifications. The mass accuracy was set to 20 parts per million (ppm) for the first search and to 4.5 ppm for the second search. The false discovery rates for peptide and protein identification were set to 0.01. Only proteins for which at least two peptides were quantified were chosen for further validation. Relative quantification of proteins was performed by using the label-free quantification algorithm implemented in MaxQuant. Statistical data analysis of pulldown samples was performed using Perseus[61] v.1.6.15.0, including proteins which were identified in at least four of the five biological replicates which were used per condition. Label-free quantification (LFQ) intensities were log-transformed (log2); replicate samples were grouped together. Pairwise comparisons of groups were performed separately. Missing values were imputed using small normally distributed values (width 0.3, downshift 1.8) and a two-sided t-test (s0 = 5, FDR = 0.001) was performed.

[6] = read-out: UCHL1 activity, data point mean
[7] = mean ± SD of independent experiments, read-out: IC50 (UCHL1)
[8] = source data Fig. 3b, read-out: Averaged IC50s from independent experiments (single experiments)

| Compound | DUB engagement (Ub-VS competitive labeling) [1] | melting temperature (Tm) of UCHL1 ([2]; compound 1.25 µM) | melting temperature (Tm) of UCHL1 ([2]; compound 2.5 µM) | melting temperature (Tm) of UCHL1 ([2]; compound 5 µM) | IC50 ([3]; read-out: IC50 (UCHL1)) [nM] | remaining activity at 0.00050402 µM [3, 6] [%] | remaining activity at 0.00151206 µM [3, 6] [%] | remaining activity at 0.00453618 µM [3, 6] [%] | remaining activity at 0.0136085 µM [3, 6] [%] | remaining activity at 0.0408257 µM [3, 6] [%] | remaining activity at 0.122477 µM [3, 6] [%] | remaining activity at 0.367431 µM [3, 6] [%] | remaining activity at 1.10229 µM [3, 6] [%] | remaining activity at 3.30688 µM [3, 6] [%] | remaining activity at 30.581 µM [3, 6] [%] | remaining activity at 100 µM [3, 6] [%] | other results |
| --- | --- | --- | --- | --- | --- | --- | --- | --- | --- | --- | --- | --- | --- | --- | --- | --- | --- |
| C#CCCC(=O)Nc1cccc(/C=C/c2ccc3c(C#N)c(N)[nH]c3c2)c1 [CG041] | did not show any covalent-irreversibly bound proteins at all |  |  |  |  |  |  |  |  |  |  |  |  |  |  |  |  |
| C#CCCCNC(=O)[C@@H]1CCN(C#N)C1 [GK16R] |  | 53.4 and 53.1 | 53.1 and 53.4 | 53.4 and 53.1 | > 100000 | 91.8 | 91.4 | 89.6 | 96.6 | 94.5 | 93.7 | 92.4 | 91.5 | 89 | 83.6 | 80.5 |  |
| C#CCn1cc(-c2ccc(C(=O)N[C@@H]3CCN(C#N)C3)c(F)c2)cn1 [CG50R] | did not show DUB engagement |  |  |  |  |  |  |  |  |  |  |  |  |  |  |  |  |
| C#CCCCNC(=O)c1ccc(-n2cnc(NC(=O)[C@@H]3CCN(C#N)C3)c2)cc1 [GK13R] |  | 53.1 and 53.4 | 53.7 and 53.4 | 54 and 54.6 | 2000 |  |  |  |  |  |  |  |  |  |  |  | inhibition of cellular UCHL1 ([4]; HEK293 cells, 24 h): complete inhibition of UCHL1; change in log2 enrichment values of UCHL1, GK13S vs GK13R [5]: 2; IC50 [3, 7]: 2090 ± 164 nM; remaining activity at 0.000305176 µM ([3]; compound 0.305176 nM, read-out: UCHL1 activity, data point mean): 103%; remaining activity at 0.000610352 µM [3, 6]: 98.3%; remaining activity at 0.0012207 µM [3, 6]: 99.2%; remaining activity at 0.00244141 µM [3, 6]: 99.4%; remaining activity at 0.00488281 µM [3, 6]: 97.8%; remaining activity at 0.00976562 µM [3, 6]: 96.8%; remaining activity at 0.0195312 µM [3, 6]: 95.9%; remaining activity at 0.0390625 µM [3, 6]: 98.3%; remaining activity at 0.078125 µM [3, 6]: 93.7%; remaining activity at 0.15625 µM [3, 6]: 88%; remaining activity at 0.3125 µM [3, 6]: 80.6%; remaining activity at 0.625 µM [3, 6]: 70.3%; remaining activity at 1.25 µM [3, 6]: 52.9%; remaining activity at 2.5 µM [3, 6]: 34.3%; remaining activity at 5 µM [3, 6]: 13.6%; remaining activity at 10 µM [3, 6]: 3.56%; IC50 [3, 8]: 2210 nM and 1980 nM |
| C#CCCC(=O)NCc1ccc(-c2cccc(Oc3ccnc(C#N)n3)c2)cc1 [CG017] | did not show any covalent-irreversibly bound proteins at all |  |  |  |  |  |  |  |  |  |  |  |  |  |  |  |  |
| N#CN1CCC[C@H]1C(=O)N1CCc2c(-c3ccnc4[nH]ccc34)cccc21 [Cpd117, reference compound] |  |  |  |  |  |  |  |  |  |  |  |  |  |  |  |  | inhibition of cellular UCHL1 ([4]; after 1 h (Supplementary Fig. 5f)): very low degree of inhibition; inhibition of cellular UCHL1 ([4]; after 24 h incubation (Supplementary Fig. 5f)): no inhibition of cellular UCHL1 at all; IC50 [3, 7]: 9 ± 3 nM |
| C#CCCCNC(=O)c1ccc(-n2cnc(NC(=O)[C@@H]3CCNC3)c2)cc1 [GK12R] |  | 53.4 and 52.8 and 53.1 | 53.4 | 53.1 | > 100000 | 95.8 | 97.9 | 98 | 94.4 | 95.3 | 95.6 | 94.6 | 95.5 | 94.2 | 93.5 | 99.1 |  |
| C#CCCCNC(=O)c1ccc(-n2cnc(NC(=O)[C@H]3CCNC3)c2)cc1 [GK12S] |  | 53.4 and 53.1 | 53.4 | 53.4 and 53.1 | > 100000 | 91.5 | 91.7 | 90.7 | 97.1 | 88.7 | 91.4 | 92.8 | 91.5 | 88.8 | 90.9 | 101 |  |
| COCCNC(=O)c1ccc(-n2cnc(NC(=O)[C@H]3CCN(C#N)C3)c2)cc1 [Cpd158, reference compound] |  | 59.4 | 59.4 | 59.1 and 59.4 |  |  |  |  |  |  |  |  |  |  |  |  | inhibition of cellular UCHL1 ([4]; HEK293 cells, 1 and 5 µM, 1 h and 24 h (Supplementary Fig. 5f)): time- and concentration-dependent inhibition; remaining activity at 0.000610352 µM [3, 6]: 96.9%; remaining activity at 0.0012207 µM [3, 6]: 97.3%; remaining activity at 0.00244141 µM [3, 6]: 95.8%; remaining activity at 0.00488281 µM [3, 6]: 91.1%; remaining activity at 0.00976562 µM [3, 6]: 90.7%; remaining activity at 0.0195312 µM [3, 6]: 86.9%; remaining activity at 0.0390625 µM [3, 6]: 82%; remaining activity at 0.078125 µM [3, 6]: 76.7%; remaining activity at 0.15625 µM [3, 6]: 62.5%; remaining activity at 0.3125 µM [3, 6]: 34.6%; remaining activity at 0.625 µM [3, 6]: 14.3%; remaining activity at 1.25 µM [3, 6]: 4.23%; remaining activity at 2.5 µM [3, 6]: 2.34%; remaining activity at 5 µM [3, 6]: 1.97%; remaining activity at 10 µM [3, 6]: 1.42%; IC50 [3, 8]: 222 nM and 36 nM and 129 nM and 153 nM and 104 nM |
| C#CCN1CCN(CCOc2ccc(C(CCC)NC(=O)/C(C#N)=C/c3cccc(Br)n3)cc2)CC1 (stereo not drawn) [MS037] | did not show DUB engagement |  |  |  |  |  |  |  |  |  |  |  |  |  |  |  |  |
